# In patent publication US8952010B2, “Amino group-containing pyrrolidinone derivative” (Daiichi Sankyo Company, Limited, priority 2011, dated 2015):
# Test system: MRSA DB00026
# Assay: Measurement of antibacterial activity (MIC), standard methods of the Japanese Society of Chemotherapy
# Format: cell-based, methicillin-resistant Staphylococcus aureus
# Conditions: Staphylococcus aureus; bacteria: MRSA DB00026
# Protocol: The measurement method of antibacterial activity of the compound of the present invention was carried out in accordance with the standard methods specified by the Japanese Society of Chemotherapy, and the results are shown in MIC (μg/mL) (Table 1).
row,MIC,SMILES
1,≤ 0.06 µg/mL,"COc1ccc2ncc(=O)n(CCCCNC3CC(=O)N(c4ccc5c(c4)NC(=O)CO5)C3)c2n1 (stereo not shown) [Example 15, 6-Methoxy-4-(4-{[5-oxo-1-(3-oxo-3,4-dihydro-2H-1,4-benzoxazin-6-yl)pyrrolidin-3-yl]amino}butyl)pyrido[2,3-b]pyrazin-3(4H)-one]"
2,≤ 0.06 µg/mL,"COc1ccc2ncc(=O)n(CCNC[C@H]3CC(=O)N(c4ccc5c(c4)NC(=O)CO5)C3)c2c1 [Example 16, 6-[(4R)-4-({[2-(7-Methoxy-2-oxoquinoxalin-1(2H)-yl)ethyl]amino}methyl)-2-oxopyrrolidin-1-yl]-2H-1,4-benzoxazin-3(4H)-one]"

# Further lines, the compound ahead of its results:
row,SMILES,MIC
1,"COc1ccc2ncc(=O)n(CCCCNC3CC(=O)N(c4ccc5c(c4)NC(=O)CO5)C3)c2c1 (stereo not shown) [Example 1, 6-(4-{[4-(7-Methoxy-2-oxoquinoxalin-1(2H)-yl)butyl]amino}-2-oxopyrrolidin-1-yl)-2H-1,4-benzoxazin-3(4H)-one]",0.12 µg/mL
2,"COc1ccc2ncc(=O)n(CC(O)CNC[C@H]3CC(=O)N(c4ccc5c(n4)NC(=O)CO5)C3)c2n1 (stereo partly drawn) [Example 22, 6-[(4R)-4-({[2-Hydroxy-3-(6-methoxy-3-oxopyrido[2,3-b]pyrazin-4(3H)-yl)propyl]amino}methyl)-2-oxopyrrolidin-1-yl)-2H-pyrido[3,2-b][1,4]oxazin-3(4H)-one]",0.25 µg/mL
3,"COc1ccc2ncc(=O)n(CCCNC3CC(=O)N(c4ccc5c(c4)NC(=O)CO5)C3)c2c1 (stereo not shown) [Example 2, 6-(4-{[3-(7-Methoxy-2-oxoquinoxalin-1(2H)-yl)propyl]amino}-2-oxopyrrolidin-1-yl)-2H-1,4-benzoxazin-3(4H)-one]",≤ 0.06 µg/mL
4,COc1ccc2ncc(=O)n(CC(F)CNC[C@H]3CC(=O)N(c4ccc5c(c4)NC(=O)CO5)C3)c2n1 (stereo partly shown) [Example 23],≤ 0.06 µg/mL
5,"COc1ccc2ncc(=O)n(CCNC[C@H]3CC(=O)N(c4ccc5c(n4)NC(=O)CO5)C3)c2c1 [Example 19, 6-[(4R)-4-({[2-(7-Methoxy-2-oxoquinoxalin-1(2H)-yl)ethyl]amino}methyl)-2-oxopyrrolidin-1-yl]-2H-pyrido[3,2-b][1,4]oxazin-3(4H)-one]",≤ 0.06 µg/mL
